Results reported in patent US20210215674A1, “COMPOSITIONS AND METHODS FOR SCREENING COMPOUNDS FOR CARDIAC SIDE EFFECTS” (Arizona Board of Regents on Behalf of the University of …, priority 2018, published 2021).

Test system: hiPSC-CM / fibroblast graft (bioengineered tissue)
Assay: ECG recording of bioengineered tissue on multi-electrode array with pharmacological perturbations
Type: cell-based, human
Conditions: for change of heart rate of the construct: continuous ECG recording, FIG. 8; for change of QT interval / change of R-R interval (heart rate-equivalent): single bioengineered tissue on multi-electrode array vs baseline, FIG. 10
Method: Methods of graft engineering: Human dermal fibroblasts were cultured into a vicryl (polygalctin 910) knitted mesh until the mesh was fully confluent with fibroblasts. Human induced pluripotent stem cell derived cardiomyocytes (hiPSC-CMs) were seeded onto the fibroblasts grafts using centrifugal force (1300 rpms for 5 min). All cell cultures were maintained at […] and 5% CO2 with media changed every 24-48 hrs. Fibroblasts were maintained with 10% FBS in DMEM, hiPSC-CMs were maintained with RPMI+B27. Grafts were either used fresh or after cryopreservation. Fresh grafts were assayed 48 hrs after hiPSC-CM engraftment. Cryopreserved grafts were assayed 2 days post reconstitution. Axion System Methods: […] diameter circular grafts were transferred to the Axion culture well, hiPSC-CM side down and three small 5 mm×1 mm weights were placed on the surface to enhance contact with the electrodes. Cultures were maintained at 37° C. and 5% CO2. Data were obtained at baseline, and then with pharmacological perturbations. NeuroNexus Methods: 1.6 cm diameter circular grafts were placed hiPSC-CM side down on the recording array. Cultures were maintained at 37° C. but no control was available for CO2. […] To enhance contact, the volume of medium in the culture well was reduced from 1.5 ml to 0.25-0.5 ml. Data were obtained at baseline, and then with pharmacological perturbations.

SMILES: CC(C)NCC(O)c1ccc(O)c(O)c1 (stereo not drawn) [Isoproterenol]
- change of heart rate of the construct: increase
- change of QT interval: decrease
- change of R-R interval (heart rate-equivalent): decrease

SMILES: CC(C)(C)NC[C@H](O)COc1nsnc1N1CCOCC1 [Timolol]
- change of heart rate of the construct: decrease
- change of QT interval: increase
- change of R-R interval (heart rate-equivalent): increase
